These results are taken from US20060040871A1, “Bacterial transforming agent” (priority 2003, published 2006).

Like-named read-outs stand apart in the source and are kept apart here.

Data set [1] relates to VRE. The experiment in a line: Antimicrobial plus BTA against VRE (Table 7). Type of data set: cell-based, enterococci. Particulars: vancomycin alone.
Data set [2] concerns MRSA. The experiment in a line: Antimicrobial plus BTA against recent clinical MRSA isolates (Table 7). Type of data set: cell-based, Staphylococcus aureus. Conditions: vancomycin alone. An excerpt:
The four clinical isolates were isolated from patients during the first three months of 2003. […] An intermediate MRSA has been included, as methicillin-resistance has been achieved by means other than production of PBP2a.

In data set [3] the test system is MRSA with intermediate resistance to glycopeptides. The experiment in a line: MIC of vancomycin or teicoplanin for MRSA with intermediate resistance to glycopeptides grown with GBE or NAGly (Table 4). Type of data set: cell-based, Staphylococcus aureus. Particulars: for MIC: Staphylococcus aureus.
Data set [4] concerns vancomycin- and gentamicin-resistant Enterococcus faecium. The experiment in a line: microbe, parasite or virus in culture. Type of data set: cell-based. Conditions: ATCC29212, read-out: MIC of vancomycin, ATCC 29212 (vancomycin-sensitive reference strain), 0.0 (Control).
Data set [5] shares this test system. The experiment in a line: microbe, parasite or virus in culture. It counts as cell-based. Particulars: Enterococcus faecium, 0.0 (Control). From the text: The agents of the present invention are not limited to the reversal of resistance in Staphylococcus. The test strains in Table 5 are patient-isolates of vancomycin- and gentamicin-resistant Enterococcus faecium. At the time of isolation, they were commonly resistant to all clinically useable antimicrobial agents.

Data set [6] has as its system glycopeptide-resistant enterococci. Conditions: cited from earlier work.
For data set [7] the following is noted: cited from earlier work.
[8] abbreviates: vanA, E. faecium and E. faecalis.

On to `CN[C@H](CC(C)C)C(=O)N[C@H]1C(=O)N[C@@H](CC(N)=O)C(=O)N[C@H]2C(=O)N[C@H]3C(=O)N[C@H](C(=O)N[C@H](C(=O)O)c4cc(O)cc(O)c4-c4cc3ccc4O)[C@H](O)c3ccc(c(Cl)c3)Oc3cc2cc(c3O[C@@H]2O[C@H](CO)[C@@H](O)[C@H](O)[C@H]2O[C@H]2C[C@](C)(N)[C@H](O)[C@H](C)O2)Oc2ccc(cc2Cl)[C@H]1O` [vancomycin], for which the Vancomycin (antimicrobial plus BTA; quantity not named, MIC implied) in data set [1] was more than 256 µg/mL; in data set [2] (EMRSA-16), 1 µg/mL; in data set [2] (EMRSA-17), 2 µg/mL; in data set [2] (I-MRSA), 0.5 µg/mL. The MIC is 0.5 µg/mL in data set [3] (MRSA / NCTC 12493, read-out: MIC of vancomycin, NCTC 12493, Control); 2 µg/mL in data set [3] (MRSA / NCTC 12493, read-out: MIC of vancomycin, reference strain NCTC 12493, as stated in text on Table 1); 8 µg/mL in data set [3] (MRSA / VISA, read-out: MIC of vancomycin, L266 (first line), EMRSA-17 (VISA), Control); 8 µg/mL in data set [3] (MRSA / VISA, read-out: MIC of vancomycin, L266 (second line), EMRSA-17 (VISA), Control); 2 µg/mL in data set [4]; 32 µg/mL in data set [5] (read-out: MIC of vancomycin, BBC). Besides, the MIC in data set [5] (read-out: MIC of vancomycin, E254) was 128 µg/mL; in data set [5] (read-out: MIC of vancomycin, E267), 128 µg/mL; in data set [5] (read-out: MIC of vancomycin, E271) it was 64 µg/mL; in data set [5] (read-out: MIC of vancomycin, E285), 64 µg/mL; in data set [5] (read-out: MIC of vancomycin, E297), 128 µg/mL; in data set [5] (read-out: MIC of vancomycin, GBC), 64 µg/mL. Moreover, the MIC turned out to be 128 µg/mL in data set [5] (read-out: MIC of vancomycin, S226); 128 µg/mL in data set [5] (read-out: MIC of vancomycin, S227); 64 µg/mL in data set [5] (read-out: MIC of vancomycin, S283); 64 µg/mL in data set [5] (read-out: MIC of vancomycin, S302); 64 µg/mL in data set [5] (read-out: MIC of vancomycin, S315); 128 µg/mL in data set [5] (read-out: MIC of vancomycin, S317). The MIC in data set [5] (read-out: MIC of vancomycin, S319) was 64 µg/mL; in data set [5] (read-out: MIC of vancomycin, S333), 64 µg/mL; in data set [5] (read-out: MIC of vancomycin, S337), 32 µg/mL; in data set [5] (read-out: MIC of vancomycin, S393) it was 64 µg/mL; in data set [5] (read-out: MIC of vancomycin, S497) it was 64 µg/mL; in data set [5] (read-out: MIC of vancomycin, S556), 64 µg/mL. In addition, in data set [5] (read-out: MIC of vancomycin, WBC), the MIC worked out at 64 µg/mL. The “level of vancomycin to which resistance is conferred” value in data set [6] (setting [8]) was not below 256 mg/L; in data set [6] (vanE, E. faecalis) it was 16 mg/L.
Take teicoplanin: the MIC of teicoplanin in data set [3] (L265, EMRSA-16 (TISA), Control) came to 32 µg/mL; in data set [3] (L266, EMRSA-16 (TISA), Control), 8 µg/mL; in data set [3] (NCTC 12493, Control), 0.25 µg/mL. Further, the “level of teicoplanin to which resistance is conferred” value in data set [6] (setting [8]) is not below 32 mg/L; in data set [6] (vanB), not above 1.0; in data set [6] (vanC1, vanC2, vanC3), not above 1.0; in data set [6] (vanE, E. faecalis), 0.5 mg/L. Besides, in data set [7], the half life is 12 h.
